Results taken from US7763728B2, “Tetrahydropyridothiophenes” (4SC AG, priority 2005, dated 2010).
pIC50: −log10 of the molar value.

Columns and labels:
[1] = tested on: RKO colon adenocarcinoma cells (RKOp27) arrested by the expression of ectopic p27Kip1; test: Alamar Blue cell viability assay on RKOp27 cells arrested by p27Kip1 expression induced by Ponasterone A; format: cell-based; details: Homo sapiens, 72 hours incubation, 10 μM Ponasterone A, read-out: IC50 RKO p27 induced (arrested)
Procedure: To determine the cell cycle specific mode of action, subclones of RKO colon adenocarcinoma cells (RKOp27 or RKOp21 as described by Schmidt et al. in Oncogene 19, 2423-2429; 2000) are seeded into 96 well flat bottom plates at a density of 15000 cells per well in a volume of 50 μl per well in DMEM growth medium with 10% FCS containing 10 μM Ponasterone A. 24 hours after seeding the 50 μl each of the compound dilutions in DMEM medium are added into each well of the 96 Well plate. Each compound dilution is tested as quadruplicates. Wells containing untreated control cells are filled with 50 μl DMEM medium containing 1% DMSO. The cells are then incubated with the substances for 72 hours at 37° C. in a humidified atmosphere containing 5% carbon dioxide. To determine the viability of the cells, 10 μl of an Alamar Blue solution (Biosource) are added and the fluorescence was measured at an extinction of 544 nm and an emission of 590 nm. For the calculation of the cell viability the emission value from untreated cells is set as 100% viability and the emission rates of treated cells are set in relation to the values of untreated cells. Viabilities are expressed as % values. Viability is compared of proliferating cells grown in the absence of the inducer Ponasterone A, versus viability of cells arrested by the expression of ectopic p27Kip1 induced by Ponasterone A.

[2] = tested on: RKO (RKOp27) human colon adenocarcinoma cells; test: Alamar Blue cell viability assay, anti-proliferative/cytotoxic activity on proliferating (uninduced) RKOp27 cells; format: cell-based; details: 72 hours incubation, absence of the inducer Ponasterone A, read-out: IC50 RKO p27 uninduced (proliferating)
Procedure: The anti-proliferative/cytotoxic activity of the compounds described herein, can be tested on subclones of RKO (RKOp27) human colon adenocarcinoma cells (Schmidt et al., Oncogene 19, 2423-2429; 2000) using the Alamar Blue cell viability assay (described in O'Brien et al. Eur J Biochem 267, 5421-5426, 2000). The compounds are dissolved as 20 mM solutions in dimethylsulfoxide (DMSO) and subsequently diluted in semi-logarithmic steps. DMSO dilutions are further diluted 1:100 into Dulbecco's modified Eagle's medium (DMEM) containing 10% fetal calf serum to a final concentration twice as much as the final concentration in the test. RKO subclones are seeded into 96 well flat bottom plates at a density of 5000 cells per well in a volume of 50 μl per well. 24 hours after seeding the 50 μl each of the compound dilutions in DMEM medium are added into each well of the 96 Well plate. Each compound dilution is tested as quadruplicates. Wells containing untreated control cells are filled with 50 μl DMEM medium containing 1% DMSO. The cells are then incubated with the substances for 72 hours at 37° C. in a humified atmosphere containing 5% carbon dioxide. To determine the viability of the cells, 10 μl of an Alamar Blue solution (Biosource) are added and the fluorescence is measured at an extinction of 544 nm and an emission of 590 nm. For the calculation of the cell viability the emission value from untreated cells is set as 100% viability and the emission rates of treated cells are set in relation to the values of untreated cells. Viabilities are expressed as % values.
The corresponding IC50 values of the compounds for anti-proliferative/cytotoxic activity are determined from the concentration-effect curves.
Representative IC50 values for anti-proliferation/cytotoxicity determined in the mentioned assay follow from the following table A, in which the numbers of the compounds correspond to the numbers of the examples.

pIC50 [1] | Compound | pIC50 [2]
< 4.00 | CCOc1ccccc1C(C)CC(=O)Nc1sc2c(c1C#N)CCN(C(=O)Cc1ccncc1)C2 (racemic) [Example 71, (RS)—N-[3-Cyano-6-(2-pyridin-4-yl-ethanoyl)-4,5,6,7-tetrahydro-thieno[2,3-c]pyridin-2-yl]-3-(2-ethoxy-phenyl)-butyramide] | ≥ 6.52
< 4.00 | COc1ccccc1C(C)CC(=O)Nc1sc2c(c1C#N)CCN(C(=O)CCc1cccnc1)C2 (racemic) [Example 77, (RS)—N-[3-Cyano-6-(3-pyridin-3-yl-propanoyl)-4,5,6,7-tetrahydro-thieno[2,3-c]pyridin-2-yl]-3-(2-methoxy-phenyl)-butyramide] | 5.70 to 6.52
≤ 4.40 | CCOc1ccccc1C(C)CC(=O)Nc1sc2c(c1C#N)CCN(C(=O)CCc1cccnc1)C2 (racemic) [Example 78, (RS)—N-[3-Cyano-6-(3-pyridin-3-yl-propanoyl)-4,5,6,7-tetrahydro-thieno[2,3-c]pyridin-2-yl]-3-(2-ethoxy-phenyl)-butyramide] | 5.70 to 6.52
< 4.00 | COc1cccc(C(C)CC(=O)Nc2sc3c(c2C#N)CCN(C(=O)CCc2ccncc2)C3)c1 (racemic) [Example 79, (RS)—N-[3-Cyano-6-(3-pyridin-4-yl-propanoyl)-4,5,6,7-tetrahydro-thieno[2,3-c]pyridin-2-yl]-3-(3-methoxy-phenyl)-butyramide] | 5.70 to 6.52
≤ 4.40 | COc1ccccc1C(C)CC(=O)Nc1sc2c(c1C#N)CCN(C(=O)Cn1ccnc1)C2 (racemic) [Example 82, (RS)—N-[3-Cyano-6-(2-Imidazol-1-yl-ethanoyl)-4,5,6,7-tetrahydro-thieno[2,3-c]pyridin-2-yl]-3-(2-methoxy-phenyl)-butyramide] | 5.70 to 6.52
≤ 4.40 | CCOc1ccccc1C(C)CC(=O)Nc1sc2c(c1C#N)CCN(C(=O)Cn1ccnc1)C2 (racemic) [Example 83, (RS)—N-[3-Cyano-6-(2-imidazol-1-yl-ethanoyl)-4,5,6,7-tetrahydro-thieno[2,3-c]pyridin-2-yl]-3-(2-ethoxy-phenyl)-butyramide] | ≥ 6.52
< 4.00 | CCCC(=O)N1CCc2c(sc(NC(=O)CC(C)c3cccc(OC)c3)c2C#N)C1 (racemic) [Example 87, (RS)—N-(6-Butyryl-3-cyano-4,5,6,7-tetrahydro-thieno[2,3-c]pyridin-2-yl)-3-(3-methoxy-phenyl)-butyramide] | 5.70 to 6.52
< 4.00 | CCCC(=O)N1CCc2c(sc(NC(=O)CC(C)c3ccccc3OC)c2C#N)C1 (racemic) [Example 89, (RS)—N-(6-Butyryl-3-cyano-4,5,6,7-tetrahydro-thieno[2,3-c]pyridin-2-yl)-3-(2-methoxy-phenyl)-butyramide] | ≥ 6.52
< 4.00 | CCCC(=O)N1CCc2c(sc(NC(=O)CC(C)c3ccccc3OCC)c2C#N)C1 (racemic) [Example 90, (RS)—N-(6-Butyryl-3-cyano-4,5,6,7-tetrahydro-thieno[2,3-c]pyridin-2-yl)-3-(2-ethoxy-phenyl)-butyramide] | ≥ 6.52
< 4.00 | COc1ccccc1C(C)CC(=O)Nc1sc2c(c1C#N)CCN(C(=O)CCc1ccccn1)C2 (racemic) [Example 94, (RS)—N-[3-Cyano-6-(3-pyridin-2-yl-propanoyl)-4,5,6,7-tetrahydro-thieno[2,3-c]pyridin-2-yl]-3-(2-methoxy-phenyl)-butyramide] | 5.70 to 6.52
≤ 4.40 | COc1ccccc1C(C)CC(=O)Nc1sc2c(c1C#N)CCN(C(=O)CCn1ccnc1)C2 (racemic) [Example 99, (RS)—N-[3-Cyano-6-(3-imidazol-1-yl-propanoyl)-4,5,6,7-tetrahydro-thieno[2,3-c]pyridin-2-yl]-3-(2-methoxy-phenyl)-butyramide] | 5.70 to 6.52
≤ 4.40 | CCOc1ccccc1C(C)CC(=O)Nc1sc2c(c1C#N)CCN(C(=O)CCn1ccnc1)C2 (racemic) [Example 100, (RS)—N-[3-Cyano-6-(3-imidazol-1-yl-propanoyl)-4,5,6,7-tetrahydro-thieno[2,3-c]pyridin-2-yl]-3-(2-ethoxy-phenyl)-butyramide] | 5.70 to 6.52

The remaining lines, values behind:

Compound | pIC50 [1] | pIC50 [2]
COc1ccccc1CCC(=O)Nc1sc2c(c1C#N)CCN(C(=O)CC(C)n1ccnc1)C2 (racemic) [Example 56, N-[3-Cyano-6-((RS)-3-imidazol-1-yl-butanoyl)-4,5,6,7-tetrahydro-thieno[2,3-c]pyridin-2-yl]-3-(2-methoxy-phenyl)-propionamide] | ≤ 4.40 | 5.70 to 6.52
COc1cccc(CCC(=O)Nc2sc3c(c2C#N)CCN(C(=O)CC(C)n2ccnc2)C3)c1 (racemic) [Example 57, N-[3-Cyano-6-((RS)-3-imidazol-1-yl-butanoyl)-4,5,6,7-tetrahydro-thieno[2,3-c]pyridin-2-yl]-3-(3-methoxy-phenyl)-propionamide] | ≤ 4.40 | 5.70 to 6.52
CCOc1cccc(C(C)CC(=O)Nc2sc3c(c2C#N)CCN(C(=O)Cc2ccccn2)C3)c1 (racemic) [Example 61, (RS)—N-[3-Cyano-6-(2-pyridin-2-yl-ethanoyl)-4,5,6,7-tetrahydro-thieno[2,3-c]pyridin-2-yl]-3-(3-ethoxy-phenyl)-butyramide] | < 4.00 | 5.70 to 6.52
COc1ccccc1C(C)CC(=O)Nc1sc2c(c1C#N)CCN(C(=O)Cc1ccccn1)C2 (racemic) [Example 62, (RS)—N-[3-Cyano-6-(2-pyridin-2-yl-ethanoyl)-4,5,6,7-tetrahydro-thieno[2,3-c]pyridin-2-yl]-3-(2-methoxy-phenyl)-butyramide] | < 4.00 | ≥ 6.52
CCOc1ccccc1C(C)CC(=O)Nc1sc2c(c1C#N)CCN(C(=O)Cc1ccccn1)C2 (racemic) [Example 63, (RS)—N-[3-Cyano-6-(2-pyridin-2-yl-ethanoyl)-4,5,6,7-tetrahydro-thieno[2,3-c]pyridin-2-yl]-3-(2-ethoxy-phenyl)-butyramide] | ≤ 5.00 | ≥ 6.52
COc1cccc(C(C)CC(=O)Nc2sc3c(c2C#N)CCN(C(=O)Cc2cccnc2)C3)c1 (racemic) [Example 64, (RS)—N-[3-Cyano-6-(2-pyridin-3-yl-ethanoyl)-4,5,6,7-tetrahydro-thieno[2,3-c]pyridin-2-yl]-3-(3-methoxy-phenyl)-butyramide] | ≤ 4.40 | 5.70 to 6.52
COc1ccccc1C(C)CC(=O)Nc1sc2c(c1C#N)CCN(C(=O)Cc1cccnc1)C2 (racemic) [Example 66, (RS)—N-[3-Cyano-6-(2-pyridin-3-yl-ethanoyl)-4,5,6,7-tetrahydro-thieno[2,3-c]pyridin-2-yl]-3-(2-methoxy-phenyl)-butyramide] | < 4.00 | ≥ 6.52
CCOc1ccccc1C(C)CC(=O)Nc1sc2c(c1C#N)CCN(C(=O)Cc1cccnc1)C2 (racemic) [Example 67, (RS)—N-[3-Cyano-6-(2-pyridin-3-yl-ethanoyl)-4,5,6,7-tetrahydro-thieno[2,3-c]pyridin-2-yl]-3-(2-ethoxy-phenyl)-butyramide] | < 4.00 | ≥ 6.52
CCOc1cccc(C(C)CC(=O)Nc2sc3c(c2C#N)CCN(C(=O)Cc2ccncc2)C3)c1 (racemic) [Example 69, (RS)—N-[3-Cyano-6-(2-pyridin-4-yl-ethanoyl)-4,5,6,7-tetrahydro-thieno[2,3-c]pyridin-2-yl]-3-(3-ethoxy-phenyl)-butyramide] | < 4.00 | 5.70 to 6.52
COc1ccccc1C(C)CC(=O)Nc1sc2c(c1C#N)CCN(C(=O)Cc1ccncc1)C2 (racemic) [Example 70, (RS)—N-[3-Cyano-6-(2-pyridin-4-yl-ethanoyl)-4,5,6,7-tetrahydro-thieno[2,3-c]pyridin-2-yl]-3-(2-methoxy-phenyl)-butyramide] | ≤ 4.40 | ≥ 6.52
